From ChEMBL document CHEMBL1146815, “Novel dual inhibitors of calpain and lipid peroxidation” (Bioorg Med Chem Lett, 2004)

How the values were obtained:
[1] = target: T1, Calpain-1 catalytic subunit (Homo sapiens, UniProt P07384); assay: Inhibitory activity against on human calpain 1
T1 sequence (P07384 whole entry): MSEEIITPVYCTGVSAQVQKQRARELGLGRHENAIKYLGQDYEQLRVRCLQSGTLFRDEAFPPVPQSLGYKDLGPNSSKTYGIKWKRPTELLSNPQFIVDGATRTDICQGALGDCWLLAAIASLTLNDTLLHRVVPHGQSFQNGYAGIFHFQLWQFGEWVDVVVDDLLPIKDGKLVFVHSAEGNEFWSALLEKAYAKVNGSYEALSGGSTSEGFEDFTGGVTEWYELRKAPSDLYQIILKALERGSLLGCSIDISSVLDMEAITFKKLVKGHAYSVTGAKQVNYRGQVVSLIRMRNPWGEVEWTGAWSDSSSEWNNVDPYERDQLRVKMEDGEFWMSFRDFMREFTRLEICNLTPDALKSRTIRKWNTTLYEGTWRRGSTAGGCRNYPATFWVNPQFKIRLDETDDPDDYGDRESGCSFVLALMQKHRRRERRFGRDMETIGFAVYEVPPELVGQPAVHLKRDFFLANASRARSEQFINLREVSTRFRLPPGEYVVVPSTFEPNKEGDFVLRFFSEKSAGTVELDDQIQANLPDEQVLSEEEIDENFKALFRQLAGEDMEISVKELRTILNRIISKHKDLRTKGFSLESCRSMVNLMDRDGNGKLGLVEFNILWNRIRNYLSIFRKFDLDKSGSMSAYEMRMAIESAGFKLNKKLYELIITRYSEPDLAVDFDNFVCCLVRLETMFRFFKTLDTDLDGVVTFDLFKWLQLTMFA

Rattus norvegicus = species on record: Rattus norvegicus; assay: Ability to inhibit [Fe2+] induced lipid peroxidation (LPO) in rat brain microsomes; assay type: functional
C6 [2] = assay: Protection against C6 glial cell death induced by maitotoxin; assay type: functional, cell-based; conditions: Rattus norvegicus
[3] = target: T1, Calpain-1 catalytic subunit; assay: Inhibitory activity against on calpain in C6 glial cells; Not active; assay type: functional, cell-based, Rattus norvegicus
C6 [4] = assay: Protection against C6 glial cell death induced by maitotoxin at 100 uM concentration; assay type: functional; conditions: Rattus norvegicus
[5] = target: T1, Calpain-1 catalytic subunit; assay: Inhibitory activity against on human calpain 1; Not active

| SMILES | IC50 [1] [µM] | IC50 (Rattus norvegicus) [µM] | IC50 (C6 [2]) [µM] | IC50 [3] | inhibition at 100 µM (C6 [4]) [%] | IC50 [5] |
| --- | --- | --- | --- | --- | --- | --- |
| Cc1c(C)c2c(c(C)c1O)CCC(C)(C(=O)N[C@@H](CC(C)C)C(=O)N[C@H]1CCOC1O)O2 (some centres not stated) | 0.147 | 1.7 | – | – | – | – |
| CC(C)C[C@H](NC(=O)c1cccc2c1Nc1ccccc1S2)C(=O)N[C@H]1CCOC1O (some centres not stated) | 0.082 | 3.6 | – | – | – | – |
| CC(=O)OC1OCC[C@@H]1NC(=O)[C@H](CC(C)C)NC(=O)c1ccc2c(c1)Nc1ccccc1S2 (some centres not stated) | – | – | 15.5 | – | – | – |
| CC(C)C[C@H](NC(=O)c1ccc2c(c1)Nc1ccccc1S2)C(=O)N[C@H]1CCOC1O (some centres not stated) | 0.0225 | 0.07 | 38.5 | – | – | – |
| Cc1cc(C(C)(C)C)c(O)c(C(C)(C)C)c1 [BUTYLATED HYDROXYTOLUENE] | – | 3.25 | – | Not Active | 21 | Not Active |
